Data published in patent US10681909B2, “Herbicidal triazoles” (FMC Corporation, priority 2014, dated 2020).

Experiments:
waterhemp = experiment: Test C postemergence; type: in vivo, Amaranthus rudis
Source text: (§1) Seeds of plant species selected from blackgrass (Alopecurus myosuroides), ryegrass, Italian (Italian ryegrass, Lolium multiflorum), wheat (winter wheat, Triticum aestivum), galium (catchweed bedstraw, Galium aparine), corn (Zea mays), crabgrass, large (large crabgrass, Digitaria sanguinalis), foxtail, giant, (giant foxtail, Setaria faberii), johnsongrass (Sorghum halepense), lambsquarters (Chenopodium album), morningglory (Ipomoea coccinea), nutsedge, yellow (yellow nutsedge, Cyperus esculentus), pigweed (Amaranthus retroflexus), ragweed (common ragweed, Ambrosia elatior), soybean (Glycine max), barnyardgrass (Echinochloa crus-galli), oilseed rape (Brassica napus), waterhemp (common waterhemp, Amaranthus rudis), and velvetleaf (Abutilon theophrasti) were planted into a blend of loam soil and sand and treated preemergence with test chemicals formulated in a non-phytotoxic solvent mixture which included a surfactant. At the same time, plants selected from these crop and weed species and also chickweed (common chickweed, Stellaria media), oat, wild (wild oat, Avena fatua), and kochia (Kochia scoparia), were planted in pots containing Sunshine Redi-Earth® planting medium comprising spaghnum peat moss, vermiculite, starter nutrients and dolomitic limestone and treated with postemergence applications of test chemicals formulated in the same manner. Plants ranged in height from 2 to 18 cm (1- to 4-leaf stage) for postemergence treatments. […] A dash (-) response means no test result.

corn = experiment: Test A preemergence; type: in vivo, Zea mays; conditions: Zea mays, pre-emergence, 240 h, 0 to 100 scale (0 no effect, 100 complete control); for Corn plant response rating (crop injury, 0 = no effect, 100 = complete kill) at 125 g/ha: 125 g ai/ha; for Corn plant response rating (crop injury, 0 = no effect, 100 = complete kill) at 500 g/ha: 500 g ai/ha, approx. 10 d
How it was run: (§2)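 Pre- and postemergence spray tests in a loam soil–sand mixture: seeded soil received a directed spray, while established seedlings 2–10 cm high at the one- to two-leaf stage were treated over the top. Compounds were carried in non-phytotoxic solvent with surfactant.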

soybean = experiment: Test C postemergence; type: in vivo, Glycine max
Source text: as §1

blackgrass = experiment: Test C postemergence; type: in vivo, Alopecurus myosuroides
Source text: as §1

morningglory = experiment: Test C postemergence; type: in vivo, Ipomoea coccinea
Source text: as §1

barnyardgrass [1] = experiment: Test C postemergence; type: in vivo, Echinochloa crus-galli
Source text: as §1

pigweed = experiment: Test A preemergence; type: in vivo, Amaranthus retroflexus; conditions: Amaranthus retroflexus, pre-emergence, 240 h, 0 to 100 scale (0 no effect, 100 complete control), read-out: Plant response rating, Pigweed; for pest or weed control at 125 g/ha: 125 g ai/ha; for pest or weed control at 500 g/ha: 500 g ai/ha, approx. 10 d
How it was run: as §2

velvetleaf = experiment: Test C postemergence; type: in vivo, Abutilon theophrasti
Source text: as §1

foxtail, giant = experiment: Test A preemergence; type: in vivo, Setaria faberii; conditions: Setaria faberi, pre-emergence, 240 h, 0 to 100 scale (0 no effect, 100 complete control), read-out: Plant response rating, Foxtail, Giant; for pest or weed control at 125 g/ha: 125 g ai/ha; for pest or weed control at 500 g/ha: 500 g ai/ha, approx. 10 d
How it was run: as §2

kochia = experiment: Test C postemergence; type: in vivo, Kochia scoparia
Source text: as §1

wheat = experiment: Test A postemergence; type: in vivo, Triticum aestivum; conditions: Triticum aestivum, post-emergence, 240 h, 0 to 100 scale (0 no effect, 100 complete control), approx. 10 d, read-out: Plant response rating, Wheat; for plant injury at 125 g/ha: 125 g ai/ha; for plant injury at 500 g/ha: 500 g ai/ha
How it was run: as §2

crabgrass, large = experiment: Test C postemergence; type: in vivo, Digitaria sanguinalis
Source text: as §1

barnyardgrass [2] = experiment: Test A preemergence; type: in vivo, Echinochloa crus-galli; conditions: Echinochloa crus-galli, pre-emergence, 240 h, 0 to 100 scale (0 no effect, 100 complete control), read-out: Plant response rating, Barnyardgrass; for pest or weed control at 125 g/ha: 125 g ai/ha; for pest or weed control at 500 g/ha: 500 g ai/ha, approx. 10 d
How it was run: as §2

SMILES: CCCc1nc(-c2ccc(F)cc2)nn1Cc1ccnc(C(F)(F)F)c1 [Compound 6, 4-[[3-(4-fluorophenyl)-5-propyl-1H-1,2,4-triazol-1-yl]methyl]-2-(trifluoromethyl)pyridine]
- Plant response rating (scale of 0 to 100 where 0 is no effect and 100 is complete control) (waterhemp; 31 g ai/ha): 80
- Plant response rating (scale of 0 to 100 where 0 is no effect and 100 is complete control) (waterhemp; 62 g ai/ha): 80
- Plant response rating (scale of 0 to 100 where 0 is no effect and 100 is complete control) (waterhemp; 125 g ai/ha): 80
- Plant response rating (scale of 0 to 100 where 0 is no effect and 100 is complete control) (waterhemp; 250 g ai/ha): 85
- Corn plant response rating (crop injury, 0 = no effect, 100 = complete kill) at 125 g/ha (corn): 20%
- Corn plant response rating (crop injury, 0 = no effect, 100 = complete kill) at 500 g/ha (corn): 30%
- Plant response rating (scale of 0 to 100 where 0 is no effect and 100 is complete control) (soybean; 31 g ai/ha): 35
- Plant response rating (scale of 0 to 100 where 0 is no effect and 100 is complete control) (soybean; 62 g ai/ha): 40
- Plant response rating (scale of 0 to 100 where 0 is no effect and 100 is complete control) (soybean; 125 g ai/ha): 60
- Plant response rating (scale of 0 to 100 where 0 is no effect and 100 is complete control) (blackgrass; 31 g ai/ha): 5
- Plant response rating (scale of 0 to 100 where 0 is no effect and 100 is complete control) (blackgrass; 62 g ai/ha): 5
- Plant response rating (scale of 0 to 100 where 0 is no effect and 100 is complete control) (blackgrass; 125 g ai/ha): 5
- Plant response rating (scale of 0 to 100 where 0 is no effect and 100 is complete control) (blackgrass; 250 g ai/ha): 10
- Plant response rating (scale of 0 to 100 where 0 is no effect and 100 is complete control) (morningglory; 31 g ai/ha): 90
- Plant response rating (scale of 0 to 100 where 0 is no effect and 100 is complete control) (morningglory; 62 g ai/ha): 95
- Plant response rating (scale of 0 to 100 where 0 is no effect and 100 is complete control) (morningglory; 125 g ai/ha): 98
- Plant response rating (scale of 0 to 100 where 0 is no effect and 100 is complete control) (barnyardgrass [1]; 31 g ai/ha): 20
- Plant response rating (scale of 0 to 100 where 0 is no effect and 100 is complete control) (barnyardgrass [1]; 62 g ai/ha): 20
- Plant response rating (scale of 0 to 100 where 0 is no effect and 100 is complete control) (barnyardgrass [1]; 125 g ai/ha): 25
- Plant response rating (scale of 0 to 100 where 0 is no effect and 100 is complete control) (barnyardgrass [1]; 250 g ai/ha): 40
- pest or weed control at 125 g/ha (pigweed): 100%
- pest or weed control at 500 g/ha (pigweed): 100%
- Plant response rating (scale of 0 to 100 where 0 is no effect and 100 is complete control) (velvetleaf; 31 g ai/ha): 55
- Plant response rating (scale of 0 to 100 where 0 is no effect and 100 is complete control) (velvetleaf; 62 g ai/ha): 55
- Plant response rating (scale of 0 to 100 where 0 is no effect and 100 is complete control) (velvetleaf; 125 g ai/ha): 55
- Plant response rating (scale of 0 to 100 where 0 is no effect and 100 is complete control) (velvetleaf; 250 g ai/ha): 55
- pest or weed control at 125 g/ha (foxtail, giant): 100%
- pest or weed control at 500 g/ha (foxtail, giant): 100%
- Plant response rating (scale of 0 to 100 where 0 is no effect and 100 is complete control) (kochia; 31 g ai/ha): 90
- Plant response rating (scale of 0 to 100 where 0 is no effect and 100 is complete control) (kochia; 62 g ai/ha): 90
- Plant response rating (scale of 0 to 100 where 0 is no effect and 100 is complete control) (kochia; 125 g ai/ha): 90
- Plant response rating (scale of 0 to 100 where 0 is no effect and 100 is complete control) (kochia; 250 g ai/ha): 90
- plant injury at 125 g/ha (wheat): 40%
- plant injury at 500 g/ha (wheat): 70%
- Plant response rating (scale of 0 to 100 where 0 is no effect and 100 is complete control) (crabgrass, large; 31 g ai/ha): 10
- Plant response rating (scale of 0 to 100 where 0 is no effect and 100 is complete control) (crabgrass, large; 62 g ai/ha): 15
- Plant response rating (scale of 0 to 100 where 0 is no effect and 100 is complete control) (crabgrass, large; 125 g ai/ha): 25
- Plant response rating (scale of 0 to 100 where 0 is no effect and 100 is complete control) (crabgrass, large; 250 g ai/ha): 65
- pest or weed control at 125 g/ha (barnyardgrass [2]): 80%
- pest or weed control at 500 g/ha (barnyardgrass [2]): 100%

SMILES: COc1nc(-c2ccc(F)cc2)nn1Cc1ccnc(C(F)(F)F)c1 [Compound 9, 4-[[3-(4-fluorophenyl)-5-methoxy-1H-1,2,4-triazol-1-yl]methyl]-2-(trifluoromethyl)pyridine]
- Plant response rating (scale of 0 to 100 where 0 is no effect and 100 is complete control) (waterhemp; 16 g ai/ha): 70
- Plant response rating (scale of 0 to 100 where 0 is no effect and 100 is complete control) (waterhemp; 31 g ai/ha): 65
- Plant response rating (scale of 0 to 100 where 0 is no effect and 100 is complete control) (waterhemp; 62 g ai/ha): 80
- Plant response rating (scale of 0 to 100 where 0 is no effect and 100 is complete control) (waterhemp; 125 g ai/ha): 85
- Corn plant response rating (crop injury, 0 = no effect, 100 = complete kill) at 125 g/ha (corn): 0%
- Corn plant response rating (crop injury, 0 = no effect, 100 = complete kill) at 500 g/ha (corn): 40%
- Plant response rating (scale of 0 to 100 where 0 is no effect and 100 is complete control) (soybean; 16 g ai/ha): 15
- Plant response rating (scale of 0 to 100 where 0 is no effect and 100 is complete control) (soybean; 31 g ai/ha): 25
- Plant response rating (scale of 0 to 100 where 0 is no effect and 100 is complete control) (soybean; 62 g ai/ha): 30
- Plant response rating (scale of 0 to 100 where 0 is no effect and 100 is complete control) (soybean; 125 g ai/ha): 30
- Plant response rating (scale of 0 to 100 where 0 is no effect and 100 is complete control) (blackgrass; 16 g ai/ha): 5
- Plant response rating (scale of 0 to 100 where 0 is no effect and 100 is complete control) (blackgrass; 31 g ai/ha): 5
- Plant response rating (scale of 0 to 100 where 0 is no effect and 100 is complete control) (blackgrass; 62 g ai/ha): 5
- Plant response rating (scale of 0 to 100 where 0 is no effect and 100 is complete control) (blackgrass; 125 g ai/ha): 15
- Plant response rating (scale of 0 to 100 where 0 is no effect and 100 is complete control) (morningglory; 16 g ai/ha): 70
- Plant response rating (scale of 0 to 100 where 0 is no effect and 100 is complete control) (morningglory; 31 g ai/ha): 85
- Plant response rating (scale of 0 to 100 where 0 is no effect and 100 is complete control) (morningglory; 62 g ai/ha): 80
- Plant response rating (scale of 0 to 100 where 0 is no effect and 100 is complete control) (morningglory; 125 g ai/ha): 75
- Plant response rating (scale of 0 to 100 where 0 is no effect and 100 is complete control) (barnyardgrass [1]; 16 g ai/ha): 5
- Plant response rating (scale of 0 to 100 where 0 is no effect and 100 is complete control) (barnyardgrass [1]; 31 g ai/ha): 10
- Plant response rating (scale of 0 to 100 where 0 is no effect and 100 is complete control) (barnyardgrass [1]; 62 g ai/ha): 10
- Plant response rating (scale of 0 to 100 where 0 is no effect and 100 is complete control) (barnyardgrass [1]; 125 g ai/ha): 20
- pest or weed control at 125 g/ha (pigweed): 100%
- pest or weed control at 500 g/ha (pigweed): 100%
- Plant response rating (scale of 0 to 100 where 0 is no effect and 100 is complete control) (velvetleaf; 16 g ai/ha): 25
- Plant response rating (scale of 0 to 100 where 0 is no effect and 100 is complete control) (velvetleaf; 31 g ai/ha): 35
- Plant response rating (scale of 0 to 100 where 0 is no effect and 100 is complete control) (velvetleaf; 62 g ai/ha): 35
- Plant response rating (scale of 0 to 100 where 0 is no effect and 100 is complete control) (velvetleaf; 125 g ai/ha): 35
- pest or weed control at 125 g/ha (foxtail, giant): 100%
- pest or weed control at 500 g/ha (foxtail, giant): 100%
- Plant response rating (scale of 0 to 100 where 0 is no effect and 100 is complete control) (kochia; 16 g ai/ha): 95
- Plant response rating (scale of 0 to 100 where 0 is no effect and 100 is complete control) (kochia; 31 g ai/ha): 90
- Plant response rating (scale of 0 to 100 where 0 is no effect and 100 is complete control) (kochia; 62 g ai/ha): 90
- Plant response rating (scale of 0 to 100 where 0 is no effect and 100 is complete control) (kochia; 125 g ai/ha): 90
- plant injury at 125 g/ha (wheat): 10%
- plant injury at 500 g/ha (wheat): 10%
- Plant response rating (scale of 0 to 100 where 0 is no effect and 100 is complete control) (crabgrass, large; 16 g ai/ha): 10
- Plant response rating (scale of 0 to 100 where 0 is no effect and 100 is complete control) (crabgrass, large; 31 g ai/ha): 10
- Plant response rating (scale of 0 to 100 where 0 is no effect and 100 is complete control) (crabgrass, large; 62 g ai/ha): 25
- Plant response rating (scale of 0 to 100 where 0 is no effect and 100 is complete control) (crabgrass, large; 125 g ai/ha): 25
- pest or weed control at 125 g/ha (barnyardgrass [2]): 80%
- pest or weed control at 500 g/ha (barnyardgrass [2]): 100%
